Measured values taken from ChEMBL document CHEMBL3393013, “Structural Insights for the Optimization of Dihydropyrimidin-2(1H)-one Based mPGES-1 Inhibitors” (ACS Med Chem Lett, 2015).

biological target: T1, Prostaglandin E synthase (Homo sapiens, UniProt O14684); assay: Inhibition of mPGES-1 in interleukin-1beta-stimulated human A549 cells microsomal membranes assessed as reduction in PGE2 formation incubated for 15 mins in presence of PGH2 and glutathione by RP-HPLC method; type: cell-based
T1 sequence (O14684 whole entry): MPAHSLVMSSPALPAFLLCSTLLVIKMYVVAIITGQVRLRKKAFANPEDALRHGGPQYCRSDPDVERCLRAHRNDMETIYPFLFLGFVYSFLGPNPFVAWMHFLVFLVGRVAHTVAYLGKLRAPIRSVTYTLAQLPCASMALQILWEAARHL

| IC50 | Structure (SMILES) |
| --- | --- |
| 5.6 µM | CC1=C(C(=O)c2cc(Br)ccc2O)C(c2ccc(-c3cccc(C(F)(F)F)c3)o2)NC(=O)N1 (stereo not drawn) |
| 1.4 µM | CC1=C(C(=O)OCc2ccccc2)C(c2ccc(-c3cccc(C(F)(F)F)c3)o2)NC(=O)N1 (stereo not drawn) |
| 0.41 µM | CC1=C(C(=O)OCc2ccccc2)C(c2ccc(-c3cccc(C(F)(F)F)c3)o2)NC(=O)N1CCC(=O)O (stereo not drawn) |
